Drawing on patent publication US10167300B2, “Metalloenzyme inhibitor compounds as fungicides” (priority 2014, dated 2019), this text covers pest or weed control for 19 compounds.

Where two headings read alike, the source gives them in different places. Some results are limits rather than exact numbers.

What all share (assay type): in vivo, Mycosphaerella graminicola on wheat plants (variety Yuma)
In assay [1] the test system is Mycosphaerella graminicola; Anamorph: Septoria tritici; Bayer Code SEPTTR (standard laboratory isolate, SI SEPTTR). The assay can be described thus: Type A (high volume) assay, leaf blotch of wheat, standard laboratory SEPTTR isolate (SI SEPTTR). To be noted: Zymoseptoria tritici, standard laboratory isolate, high volume, 50 ppm, wheat (Yuma). In a few lines:
(§1)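 Wheat seedlings (Yuma, first leaf emerged) sprayed with acetone/Triton X-100 solutions (Type A) or 10% EC diluted in 0.1% Trycol at 200 L/ha (Type B), inoculated before or after spraying. Inoculated plants held 3 days at 20 °C, 100% RH, then greenhouse; % disease control from severity versus untreated plants.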

The test system is the same in assay [2]. The assay can be described thus: Type B (low volume, EC formulation, track sprayer 200 L/ha) assay, leaf blotch of wheat, standard laboratory SEPTTR isolate (SI SEPTTR). To be noted: Zymoseptoria tritici, 72 h, 100 g/ha. The method, then: Example A: Evaluation of Fungicidal Activity: Leaf Blotch of Wheat (Mycosphaerella graminicola; Anamorph: Septoria tritici; Bayer Code SEPTTR)
For Type A assays, technical grades of the experimental fungicides in Table 4 below were dissolved in acetone, and then mixed with nine volumes of water containing 110 ppm Triton X-100. The fungicide solutions were applied onto wheat seedlings using an automated booth sprayer. For Type B assays, emulsifiable concentrate (EC) formulations of technical grades of the experimental fungicides in Table 4 below were prepared at 10% (w/v), and then mixed with 150 volumes of 0.1% Trycol 5941. These solutions were applied onto wheat seedlings using an automated track sprayer at 200 L/ha. All sprayed plants were allowed to air dry prior to further handling.
Wheat plants (variety Yuma) were grown from seed in a greenhouse in 50% mineral soil/50% soil-less Metro mix until the first leaf was fully emerged, with 7-10 seedlings per pot. Prior to or after application of experimental fungicides, plants were inoculated either with spores of a standard laboratory SEPTTR isolate (SI SEPTTR) or with spores from a SEPTTR field isolate collected from Wellsbourne, England in 2012 (FI SEPTTR). After inoculation the plants were kept for 3 days at 20° C. in 100% relative humidity (one day in a dark dew chamber followed by two days in a lighted dew chamber). Plants were then transferred to a 20° C. greenhouse for disease development. When disease symptoms were fully expressed on untreated plants, infection levels on treated plants were assessed on a scale of 0 to 100 percent disease severity. Percent disease control was calculated using the ratio of disease severity on treated plants relative to untreated plants.

Assay [3] is described as follows: Type B (low volume, EC formulation, track sprayer 200 L/ha) assay, leaf blotch of wheat, SEPTTR field isolate (FI SEPTTR). To be noted: Zymoseptoria tritici, 72 h, 100 g/ha. In a few lines: as §1
Setting [4] is: 24 h, 1 Day Protectant, read-out: Disease Control, SI SEPTTR Type A Assay (50 ppm) 1 DP.
Setting [5] is: 72 h, 3 Day Curative, read-out: Disease Control, SI SEPTTR Type A Assay (50 ppm) 3 DC.
Where [6] appears, read: standard laboratory isolate, low volume EC, 3 Day Curative, wheat (Yuma), read-out: Disease Control, SI SEPTTR Type B Assay (100 g/ha) 3 DC.
Where [7] appears, read: standard laboratory isolate, low volume EC, 3 Day Protectant, wheat (Yuma), read-out: Disease Control, SI SEPTTR Type B Assay (100 g/ha) 3 DP.
Setting [8] is: field isolate, low volume EC, 3 Day Curative, wheat (Yuma), read-out: Disease Control, FI SEPTTR Type B Assay (100 g/ha) 3 DC.
The mark [9] stands for this setting: field isolate, low volume EC, 3 Day Protectant, wheat (Yuma), read-out: Disease Control, FI SEPTTR Type B Assay (100 g/ha) 3 DP.

`OC(Cc1ccc(Cl)cc1F)(c1cncnc1)c1ccc(Oc2ccc(Cl)cc2)cn1` (centres unmarked) [Compound 41, 2-(4-chloro-2-fluorophenyl)-1-(5-(4-chlorophenoxy)-pyridin-2-yl)-1-(pyrimidin-5-yl)ethanol]: the pest or weed control at 50 ppm in assay [1] (setting [4]) and in assay [1] (setting [5]) was 80 to 100% each time. Further, the pest or weed control at 100 g/ha in assay [2] (setting [6]) was 80 to 100%; in assay [2] (setting [7]), 80 to 100%; in assay [3] (setting [8]), less than 40%; in assay [3] (setting [9]), 60 to 79%.
Take `CC(C)(C)C(O)(Cc1cncnc1)c1ccc(-c2ccc(Cl)cc2)cn1` (centres unmarked) [Compound 51]: the pest or weed control at 50 ppm in assay [1] (setting [4]) and in assay [1] (setting [5]) was 80 to 100% each time. The pest or weed control at 100 g/ha was 40 to 59% in assay [2] (setting [6]), 60 to 79% in assay [2] (setting [7]), 60 to 79% in assay [3] (setting [8]) and 60 to 79% in assay [3] (setting [9]).
As to `OC(c1ccc(-c2ccc(OC(F)(F)F)cc2)cn1)(c1cncs1)C1CC1` (centres unmarked) [Compound 89], the pest or weed control at 50 ppm in assay [1] (setting [4]) was 80 to 100%. The pest or weed control at 100 g/ha in assay [2] (setting [6]) was in the range of 80 to 100%; in assay [2] (setting [7]) it was 80 to 100%; in assay [3] (setting [8]), 40 to 59%; in assay [3] (setting [9]), 60 to 79%.
For the compound `OC(c1cncnc1)(c1ccc(-c2ccc(OC(F)(F)F)cc2)cn1)C1CC1` (centres unmarked) [Compound 73], the pest or weed control at 50 ppm in assay [1] (setting [4]) lay within 80 to 100%. Besides, the pest or weed control at 100 g/ha in assay [2] (setting [6]) was in the range of 80 to 100%; in assay [2] (setting [7]) it was 80 to 100%; in assay [3] (setting [8]) it was 60 to 79%; in assay [3] (setting [9]), 60 to 79%.
Take `CC(C)(C)C(O)(c1cncnc1)c1ccc(-c2ccc(OC(F)F)cc2)cn1` (centres unmarked) [Compound 59]: the pest or weed control at 50 ppm in assay [1] (setting [4]) and in assay [1] (setting [5]) was 80 to 100% each time. The pest or weed control at 100 g/ha in assay [2] (setting [6]), in assay [2] (setting [7]), in assay [3] (setting [8]) and in assay [3] (setting [9]) was 80 to 100% in each case.
As to `Cc1cc(C2(C#N)CC2)ccc1-c1ccc(C(O)(c2cncnc2)C(C)(C)C)nc1` (centres unmarked) [Compound 158], in assay [1] (setting [4]), the pest or weed control at 50 ppm was in the range of 80 to 100%. The pest or weed control at 100 g/ha in assay [2] (setting [6]), in assay [2] (setting [7]), in assay [3] (setting [8]) and in assay [3] (setting [9]) was 80 to 100% throughout.
For the compound `CCC(C)(C)C(O)(c1cncnc1)c1ccc(-c2ccc(OC(F)(F)F)cc2)cn1` (centres unmarked) [Compound 93, 2,2-dimethyl-1-pyrimidin-5-yl-1-[5-[4-(trifluoromethoxy)phenyl]-2-pyridyl]butan-1-ol], in assay [1] (setting [4]), the pest or weed control at 50 ppm lay within 80 to 100%. Further, the pest or weed control at 100 g/ha in assay [2] (setting [6]) is 80 to 100%; in assay [2] (setting [7]), 80 to 100%; in assay [3] (setting [8]), 60 to 79%; in assay [3] (setting [9]), 80 to 100%.
Consider `Cc1ncc(C(O)(c2ccc(-c3ccc(OC(F)(F)F)cc3)cn2)C(C)(C)C)cn1` (centres unmarked) [Compound 83], for which the pest or weed control at 50 ppm in assay [1] (setting [4]) is 40 to 59%. Further, the pest or weed control at 100 g/ha in assay [2] (setting [6]) was less than 40%; in assay [2] (setting [7]) it was 40 to 59%; in assay [3] (setting [8]) it was 80 to 100%; in assay [3] (setting [9]) it was 40 to 59%.
Regarding `Cc1cc(OC(F)(F)F)ccc1-c1ccc(C(O)(c2cncnc2)C(C)(C)C)nc1` (centres unmarked) [Compound 117], the pest or weed control at 50 ppm in assay [1] (setting [4]) was 80 to 100%. Besides, the pest or weed control at 100 g/ha in assay [2] (setting [6]), in assay [2] (setting [7]), in assay [3] (setting [8]) and in assay [3] (setting [9]) was 80 to 100% each time.
`COc1ncncc1C(O)(c1ccc(-c2ccc(OC(F)(F)F)cc2)cn1)C(C)(C)C` (centres unmarked) [Compound 167]: in assay [1] (setting [4]), the pest or weed control at 50 ppm is 80 to 100%. Also, the pest or weed control at 100 g/ha in assay [2] (setting [6]) is 80 to 100%; in assay [2] (setting [7]), 60 to 79%; in assay [3] (setting [8]), 80 to 100%; in assay [3] (setting [9]), 80 to 100%.
Regarding `CC(C)C(O)(Cc1cncnc1)c1ccc(-c2ccc(Cl)cc2)cn1` (centres unmarked) [Compound 38], the pest or weed control at 50 ppm in assay [1] (setting [4]) and in assay [1] (setting [5]) was 80 to 100% each time. Besides, the pest or weed control at 100 g/ha in assay [2] (setting [6]) was 80 to 100%; in assay [2] (setting [7]), 80 to 100%; in assay [3] (setting [8]) it was 80 to 100%; in assay [3] (setting [9]) it was 40 to 59%.
Turning to `Cc1cc(-c2ccc(C(O)(c3cncnc3)C(C)(C)C)nc2)ccc1OC(F)(F)F` (centres unmarked) [Compound 116], the pest or weed control at 50 ppm in assay [1] (setting [4]) is 60 to 79%. Further, the pest or weed control at 100 g/ha lay in the range of 80 to 100% in assay [2] (setting [6]), 80 to 100% in assay [2] (setting [7]), 80 to 100% in assay [3] (setting [8]) and 60 to 79% in assay [3] (setting [9]).
Take `CC(C)(C)C(O)(c1ccc(-c2ccc(OC(F)F)cc2)cn1)c1cncs1` (centres unmarked) [Compound 86]: the pest or weed control at 50 ppm in assay [1] (setting [4]) was in the range of 60 to 79%. For the same compound, the pest or weed control at 100 g/ha in assay [2] (setting [6]), in assay [2] (setting [7]), in assay [3] (setting [8]) and in assay [3] (setting [9]) was 80 to 100% throughout.
Regarding `CC(C)(C)C(O)(c1cncnc1)c1ccc(-c2ccc(OC(F)(F)F)cc2F)cn1` (centres unmarked) [Compound 124, 1-(5-(2-fluoro-4-(trifluoromethoxy)phenyl)pyridin-2-yl)-2,2-dimethyl-1-(pyrimidin-5-yl)propan-1-ol], in assay [1] (setting [4]), the pest or weed control at 50 ppm lay within 80 to 100%. The pest or weed control at 100 g/ha in assay [2] (setting [6]), in assay [2] (setting [7]), in assay [3] (setting [8]) and in assay [3] (setting [9]) was 80 to 100% throughout.
For `OC(c1cncnc1)(c1ccc(Oc2ccc(Cl)cn2)cn1)C1CC1` (centres unmarked) [Compound 14], the pest or weed control at 50 ppm in assay [1] (setting [4]) and in assay [1] (setting [5]) was 80 to 100% throughout. Also, the pest or weed control at 100 g/ha in assay [2] (setting [6]) is 60 to 79%; in assay [2] (setting [7]), 60 to 79%; in assay [3] (setting [8]), 40 to 59%; in assay [3] (setting [9]) it was 60 to 79%.
In the case of `COC(c1cncnc1)(c1ccc(-c2ccc(OC(F)(F)F)cc2)cn1)C(C)(C)C` (centres unmarked) [Compound 277, 5-(1-methoxy-2,2-dimethyl-1-(5-(4-(trifluoromethoxy)phenyl)pyridin-2-yl)propyl)pyrimidine], the pest or weed control at 100 g/ha lay within 80 to 100% in assay [2] (SEPTTR standard laboratory isolate, low volume Type B assay, 3 Day Curative, wheat leaf blotch, read-out: Disease Control, SI SEPTTR Type B Assay (100 g/ha) 3 DC); 80 to 100% in assay [2] (SEPTTR standard laboratory isolate, low volume Type B assay, 3 Day Protectant, wheat leaf blotch, read-out: Disease Control, SI SEPTTR Type B Assay (100 g/ha) 3 DP); 80 to 100% in assay [3] (SEPTTR field isolate, low volume Type B assay, 3 Day Curative, wheat leaf blotch, read-out: Disease Control, FI SEPTTR Type B Assay (100 g/ha) 3 DC); 80 to 100% in assay [3] (SEPTTR field isolate, low volume Type B assay, 3 Day Protectant, wheat leaf blotch, read-out: Disease Control, FI SEPTTR Type B Assay (100 g/ha) 3 DP).
For `Cc1ccc(C(O)(c2ccc(-c3ccc(OC(F)(F)F)cc3)cn2)C(C)(C)C)cn1` (centres unmarked) [Compound 148], the pest or weed control at 100 g/ha was 60 to 79% in assay [2] (setting [6]), less than 40% in assay [2] (setting [7]), 60 to 79% in assay [3] (setting [8]) and less than 40% in assay [3] (setting [9]).
On to `Cc1ncccc1C(O)(c1ccc(-c2ccc(OC(F)(F)F)cc2)cn1)C(C)(C)C` (centres unmarked) [Compound 151], for which the pest or weed control at 50 ppm in assay [1] (setting [4]) lay within 80 to 100%. The pest or weed control at 100 g/ha in assay [2] (setting [6]) and in assay [2] (setting [7]) was 80 to 100% each time.
On to `Cc1ccncc1C(O)(c1ccc(-c2ccc(OC(F)(F)F)cc2)cn1)C(C)(C)C` (centres unmarked) [Compound 149], for which the pest or weed control at 100 g/ha in assay [2] (setting [6]) lay in the range of 80 to 100%; in assay [2] (setting [7]), 60 to 79%; in assay [3] (setting [8]), 80 to 100%; in assay [3] (setting [9]), 60 to 79%.
